Results from patent US7655237B2, “Use of soluble CD14 for treatment of type 2 diabetes mellitus” (Bridge Bioresearch Limited, priority 2003, dated 2010).
Read-outs that look alike come from different tables or passages of the source.

Assays:
LPS = conditions: biotinylated LPS binding to sCD14-coated wells, cited from earlier work
C57BL/6J mice (HF mice) = experiment: treatment of insulin-resistant obese C57BL/6J mice (HF mice), glucose tolerance test; assay type: in vivo; conditions: HF diet obese mice
From the text: The objective of this experiment was to study the effect of systemic administration of human recombinant sCD14 (rhCD14) with respect to relevant insulin resistance parameters in experimental mice (C57BL/6J mice (HF mice).
Experiential animals: Male mice strains C57BL/6J (HF mice) C(he Jackson lab.). These animals had obesity.
Treatment of the mice with rhCD14: Male C57BL/6J mice were fed a HF diet (Harlan Teklad No. 88137: 21% by wt and 42% kcal from fat) for 26-28 weeks. The last 12 days, mice received a dose of 1 μg/g bw per day of hCD14 in two injections (0.5 μg/g each one) every 12 hours. The control group was treated with vehicle (saline serum) alone. Each group contained 9 mice.
Assay for Glucose Tolerance: As in Example 1.

C57BL/6J ob/ob mice = experiment: treatment of insulin-resistant diabetic C57BL/6J ob/ob mice, intraperitoneal glucose tolerance test; assay type: in vivo
From the text: The objective of this experiment was to study the effect of systemic administration of human recombinant sCD14 (rhCD14) with respect to relevant insulin resistance parameters in experimental mice (mice C57BL/6J ob/ob).
Experimental animals: Mice strains C57BL/6J ob/ob (The Jackson lab.). Males of 10 weeks old. These animals had obesity with hyperphagia, hyperinsulinemia (the presence of excess insulin in the blood), insulin resistance and moderate hyperglycemia (an excess of sugar in the blood).
Treatment of the mice with rhCD14: rhCD14 was continuously infused for 12 days by use of Alzet® pumps (pump 1002, 100 μl) implanted subcutaneously on the back of the animals. 20 mice were used. 10 with rhCD14 and 10 with saline serum (control). The dose was 1 μg/g weight of mice/day and it was administrated subcutaneously for 12 days.
Assay for glucose tolerance: Finalized the 12 days and after 16 hours of fasting, an intraperitoneal glucose tolerance test (GTT) was made. 2 g/kg of glucose (Glucosmon, 50%) were injected intraperitoneally. Blood samples were taken from the tail of the mice (20 μl) at 0, 15, 30, 60, 120 and 180 minutes after the glucose administration. The blood glucose levels were measured using a conventional glucometer (Menarini) and the insulin levels were meed by ELISA (Mercodia Ultrasensitive Mouse Insulin ELISA).

Row | Substance | inhibition of LPS binding (LPS; concentration 1.7 μM) | inhibition of LPS binding (LPS; concentration 7 μM) | concentrations of serum insulin (C57BL/6J mice (HF mice); 1 μg/g bw per day for 12 days) | basal levels of serum glucose compared to the control group (C57BL/6J mice (HF mice); 1 μg/g bw per day in two injections for 12 days) | body weight, treated vs controls (C57BL/6J mice (HF mice); 12 days treatment) | insulin curves in GTT, treated vs control (two-way ANOVA) (C57BL/6J mice (HF mice); P<0.0001) | glucose curves in GTT, treated vs control (two-way ANOVA) (C57BL/6J mice (HF mice); P<0.002) | basal levels of serum glucose compared to the control group (C57BL/6J ob/ob mice; 1 μg/g/day s.c. for 12 days) | concentrations of serum insulin (C57BL/6J ob/ob mice; 1 μg/g/day s.c. for 12 days) | fasting blood glucose (C57BL/6J ob/ob mice; 1 μg/g/day s.c. infusion for 12 days, 16 hours fasting, mean±SEM, control 242±30, P=0.02) | body weight, treated vs controls (C57BL/6J ob/ob mice; 12 days treatment) | glucose curves in GTT, treated vs control (two-way ANOVA) (C57BL/6J ob/ob mice; i.p. GTT 2 g/kg glucose, 0-180 min, P<0.02) | insulin curves in GTT, treated vs control (two-way ANOVA) (C57BL/6J ob/ob mice; i.p. GTT, P<0.0001)
1 | AELQQWLKPGLKVLSIAQAHSLNFSC (mammalian) [peptide] | 72% | 84% | – | – | – | – | – | – | – | – | – | – | –
2 | rhCD14: human recombinant soluble CD14 glycoprotein, binds bacterial lipopolysaccharide (LPS) | 84% | – | increased | decreased | did not produce significant changes | significant difference | significant difference | decreased | also decreased | 153 ± 14 mg/dL | did not produce significant changes | significant difference | significant difference
